Series [1] deals with RAW264.7. Nature of the series: Inhibition of LPS-induced nitric oxide production in mouse RAW264.7 cells after 24 hrs by Griess assay. The format is functional, cell-based. The settings on record: RAW264.7, 24 h.
In series [2] the test system is RAW264.7. The series is described as follows: Cytotoxicity against mouse RAW264.7 cells by MTT assay. It counts as cell-based. (Formazan colour is commonly taken as a measure of viable cells.)
Series [3] has as its system RAW264.7. The series is described as follows: Inhibition of LPS-induced nitric oxide production in mouse RAW264.7 cells at 80 uM after 24 hrs by Griess assay relative to control. It counts as functional. The settings on record: RAW264.7, 24 h.

pIC50: −log10 of the molar value.

By pIC50 is commonly meant the IC50 on a negative log10 scale, so that one unit is a factor of ten. In turn, `COC(=O)[C@]12C(=O)[C@@H](C)O[C@@H]3OC(=O)[C@](C)(C[C@@H]4[C@]1(C)CC=C1C(=CC(=O)OC1(C)C)[C@@]4(C)O)[C@@H]32` gave a pIC50 in series [1] of 4.11. Besides, the Activity result in series [2] is listed as “Non-Toxic”.
What is called inhibition is the change of the read-out against control, counted positive when it falls. Read a high inhibition as a strong effect. Consider `C[C@H]1OC(=O)[C@@]23[C@@H]4[C@H]5OC(=O)[C@]4(C)C[C@@H]4[C@]2(C)[C@H](C=C2C(=CC(=O)OC2(C)C)[C@@]42CO2)O[C@@]13O5`, for which the inhibition at 80 µM in series [3] was under 50%.
Still for that read-out and setting: next, `COC(=O)[C@]1(C)O[C@H]2OC(=O)[C@@H]3[C@H]2[C@@](C)(C[C@H]2C(C)=C4CC(=O)OC(C)(C)C4=CC[C@]32C)C1=O`: under 50%.
`C[C@H]1O[C@@H]2OC(=O)[C@]3(C)C[C@@H]4[C@@]5(C)C(=C1O[C@H]5C=C1C(=CC(=O)OC1(C)C)[C@@]41CO1)[C@]23O` had a pIC50 in series [1] of 4.62. In addition, in series [2], the Activity result is given as “Non-Toxic”.
`COC(=O)[C@]12C[C@@](C)(O)C(=O)[C@](C)(C[C@H]3C(C)=C4CC(=O)OC(C)(C)C4=CC[C@@]31C)[C@]21CO1` displayed an inhibition at 80 µM in series [3] of under 50%.
Same read-out and setting: in the case of `C[C@H]1O[C@@H]2OC(=O)[C@]3(C)C[C@@H]4[C@@]5(C)C(=C1O[C@H]5C=C1C(=CC(=O)OC1(C)C)[C@@]41CO1)[C@H]23` it was under 50%.
`COC(=O)[C@]12C(=O)[C@@H](C)O[C@@H]3OC(=O)[C@](C)(C[C@H]4[C@]5(CO5)C5=CC(=O)OC(C)(C)[C@]56O[C@@H]6C[C@@]41C)[C@@H]32` gave an inhibition at 80 µM in series [3] of under 50%.
`COC(=O)[C@]12C(=O)[C@@H](C)O[C@@H]3OC(=O)[C@](C)(C[C@H]4C(C)=C5CC(=O)OC(C)(C)C5=CC[C@@]41C)[C@@H]32`: the inhibition at 80 µM in series [3] is under 50%.
`C[C@@H]1O[C@H]2OC(=O)[C@@]3(C)C[C@H]4[C@@](C)(C(=O)C=C5C(=CC(=O)OC5(C)C)[C@]45CO5)[C@@H](C1=O)[C@@]23O` gave a pIC50 in series [1] of 4.90. Also, in series [2], the Activity entry is recorded as “Non-Toxic”.
In series [3], `COC(=O)[C@]12C(=O)[C@H](C)O[C@@H]3OC(=O)[C@](C)(C[C@H]4[C@]5(CO5)C5=CC(=O)OC(C)(C)C5=CC[C@@]41C)[C@@H]32` [BERKELEYACETAL B] registered an inhibition at 80 µM of under 50%.
For the compound `C[C@@H]1O[C@@H]2OC(=O)[C@]3(C)C[C@@H]4[C@](C)(C(=O)C=C5C(=CC(=O)OC5(C)C)[C@@]45CO5)[C@H](C1=O)[C@H]23` [BERKELEYACETAL C], the pIC50 in series [1] is 5.37. Also, the Activity result in series [2] was “Non-Toxic”.
In turn, `C=C1[C@@]2(C)C[C@H]3C(C)=C4CC(=O)OC(C)(C)C4=CC[C@]3(C)[C@]1(C(=O)OC)C(=O)[C@@](C)(O)C2=O` [BERKELEYDIONE] gave an inhibition at 80 µM in series [3] of under 50%.
In the case of `C=C1[C@@]2(C)C[C@@H]3[C@](C)(CC=C4C(C)(C)OC(=O)CC[C@]43C)[C@]1(C(=O)OC)C(=O)[C@@](C)(O)C2=O` [BERKELEYONE B], in series [3], the inhibition at 80 µM was under 50%.
Regarding `COc1ccc2c(c1)c(CC(=O)O)c(C)n2C(=O)c1ccc(Cl)cc1` [INDOMETHACIN], in series [1], the pIC50 was 4.47.

Values taken from ChEMBL document CHEMBL4130459, “3,5-Dimethylorsellinic Acid Derived Meroterpenoids from Penicillium chrysogenum MT-12, an Endophytic Fungus Isolated from Huperzia serrata” (J Nat Prod, 2017).
